# Measured values published in patent EP0975351B1, “TREATMENT OF MULTIPLE SCLEROSIS THROUGH INGESTION OF COPOLYMER-1” (YEDA RESEARCH AND DEVELOPMENT CO. LTD., priority 1997, dated 1998).
# Tests used:
# [1] = test system: spleen cell cultures derived from mice; test: Cytokine secretion assay of spleen cells from fed mice (ELISA); type: cell-based; conditions: versus PBS fed control
# Procedure: Induction and Assessment of EAE - Mice were injected with 200 µg GPBP emulsified in an equal volume of complete Freund's adjuvant (CFA) containing 4 mg/ml mycobacterium tuberculosis (H37Ra) (Difco Lab, Detroit, Mich.). The emulsion at a total volume of 0.1 ml was injected into all four footpads. Immediately after and 24 hours later, pertussis toxin (250ng/mouse) (Sigma) was injected intravenously.
# Induction of Oral Tolerance - Mice were fed with 250 µg GPBP or glatiramer acetate dissolved in phosphate buffered saline (PBS) on days -7, -5, -3, 0, 2, 4 and 6 by gastric intubation with an 18-gauge stainless steel feeding needle (Thomas). EAE was induced on day 0.
# Cytokine Secretion Assay - Spleens were removed 10-11 days after EAE induction and cells of 3 mice from each group were pooled. Cells (5x10^6/ml) were cultured in duplicates in 24 well plate in RPMI 1640 supplemented with 10% FCS (Fetal Calf Serum) in the presence or absence of antigen (GPBP 100 Fg/ml). Supematants were harvested after 24-40 hr of culture. Quantitative ELISA for IL-2, IFN-γ, IL-4, IL-6 and IL-10 were performed using paired mAbs specific for the corresponding cytokines (Pharmingen, La Jolla, CA) according to the manufacturer's instructions.
# [2] = test system: T-cell line derived from spleens of glatiramer acetate fed rats; test: Proliferation assay of T-cell line from spleens of fed rats; type: cell-based; conditions: rat line cultured with glatiramer acetate as antigen (Figure 6)
# Procedure: Isolation of glatiramer acetate specific T cell lines - Lewis rats were fed 5 times with 1 mg glatiramer acetate and (SJUJ x BALB/c)F, mice 7 times with 250 µg glatiramer acetate, at intervals of 2-3 days. Four to twelve days after the last feeding animals were sacrificed and their spleens removed.
# Spleen cells of 3 animals were pooled and incubated (50 x 10^6/plate) with glatiramer acetate (500 µg) in medium containing 1 % autologous serum for 4 days. Every 14-21 days cells (4-6 x 10^6/plate) were restimulated by 3 days exposure to copolymer-1 (500 µg) presented on syngeneic irradiated (3000 rad) rat thymocytes (100 x 10^6/plate) or mouse splenocytes (50 x 10^6/plate). Stimulation was followed by propagation in 10% supernatant of Con A activated normal mouse spleen cells as T cell growth factor (TCGF).
# Proliferation Assay - T cell lines (1 x 10^4 cells) were cultured with irradiated (3000R) thymocytes (rat-1 x 10^6) or splenocytes (mouse- 5 x 10^5) and with the indicated antigens (10 µg glatiramer acetate; 1 µg Con A) in a final volume of 0.2 ml in microtiter plates. At the end of 48 hours incubation cultures were pulsed with ^3H-thymidine and harvested 6-12 hours later.
# PBL = test: Flow cytometry of peripheral blood lymphocytes (PBL); type: in vivo, Rhesus Monkeys; design: CD4+ / CD8+ / CD4+ CD45RA+ / CD8+ CD45RA+: unit not given here; conditions: for Ratio: CD4+/CD8+
# Procedure: 3 Rhesus monkeys were treated as follows: One monkey served as control and was fed with placebo capsules (containing 5mg glucose only). The second and third monkeys were fed with glatiramer acetate containing capsules at a dose of 1mg/feeding and 20mg/feeding, respectively. Animals were fed every other day for a total of 10 feedings: 5 times prior to disease induction (immunization on day 0) and then 5 times after immunization.
# Disease was induced on day 0 by an intradermal injection of 8mg bovine - MBP and 3 mg H37Ra M. tuberculosis in FCA into the hind footpads, total injected volume between 0.1 and 0.15 ml per footpad. The animals were followed for clinical manifestations of EAE, a variety of serum and CSF immunological markers and spinal cord and cranial MRI's.
# The Epics C flow cytometer was used to analyze both peripheral blood lymphocytes (PBL) and cerebral spinal fluid (CSF) collected from each monkey. The red blood cells were lysed and the remaining white blood cells (WBCs) were washed and stained using standard methods with appropriate reagents. Tables 3 and 4 below show the data from staining PBL and CSF WBCs from the three animals in this Example.
# [3] = animal 18497, 1mg/dose, day +13
# [4] = animal 18497, 1mg/dose, day +20
# [5] = animal 18497, 1mg/dose, day +27
# [6] = animal 18498, 20 mg/dose, day +6
# [7] = animal 18498, 20 mg/dose, day +13
# [8] = animal 18498, 20 mg/dose, day +20
# [9] = animal 18498, 20 mg/dose, day +27
# [10] = animal 18498, 20 mg/dose, day -1
substance,measurement,setting,value
glatiramer acetate,IFN-γ produced in response to GPBP stimulation,[1],lower than in control groups
same,IL-2 produced in response to GPBP stimulation,[1],lower than in control groups
same,proliferation response of T-cell line,[2],proliferated in response to glatiramer acetate
same,Ratio,"PBL; animal 18497, 1mg/dose, day +6",1.26
same,Ratio,PBL; [3],1.09
same,Ratio,PBL; [4],1.28
same,Ratio,PBL; [5],1.3
same,Ratio,"PBL; animal 18497, 1mg/dose, day -1",0.97
same,Ratio,PBL; [6],0.88
same,Ratio,PBL; [7],0.89
same,Ratio,PBL; [8],0.47
same,Ratio,PBL; [9],0.71
same,Ratio,PBL; [10],0.93
same,CD4+,"PBL; animal 18497, 1mg/dose, day +6",39
same,CD4+ CD45RA+,"PBL; animal 18497, 1mg/dose, day +6",24
same,CD8+,"PBL; animal 18497, 1mg/dose, day +6",31
same,CD8+ CD45RA+,"PBL; animal 18497, 1mg/dose, day +6",29
same,CD4+,PBL; [3],37
same,CD4+ CD45RA+,PBL; [3],16
same,CD8+,PBL; [3],34
same,CD8+ CD45RA+,PBL; [3],29
same,CD4+,PBL; [4],41
same,CD4+ CD45RA+,PBL; [4],18
same,CD8+,PBL; [4],32
same,CD8+ CD45RA+,PBL; [4],25
same,CD4+,PBL; [5],35
same,CD4+ CD45RA+,PBL; [5],12
same,CD8+,PBL; [5],27
same,CD8+ CD45RA+,PBL; [5],18
same,CD4+,"PBL; animal 18497, 1mg/dose, day -1",35
same,CD4+ CD45RA+,"PBL; animal 18497, 1mg/dose, day -1",21
same,CD8+,"PBL; animal 18497, 1mg/dose, day -1",36
same,CD8+ CD45RA+,"PBL; animal 18497, 1mg/dose, day -1",33
same,CD4+,PBL; [6],37
same,CD4+ CD45RA+,PBL; [6],23
same,CD8+,PBL; [6],42
same,CD8+ CD45RA+,PBL; [6],32
same,CD4+,PBL; [7],41
same,CD4+ CD45RA+,PBL; [7],24
same,CD8+,PBL; [7],46
same,CD8+ CD45RA+,PBL; [7],37
same,CD4+,PBL; [8],27
same,CD4+ CD45RA+,PBL; [8],12
same,CD8+,PBL; [8],57
same,CD8+ CD45RA+,PBL; [8],41
same,CD4+,PBL; [9],37
same,CD4+ CD45RA+,PBL; [9],22
same,CD8+,PBL; [9],52
same,CD8+ CD45RA+,PBL; [9],41
same,CD4+,PBL; [10],37
same,CD4+ CD45RA+,PBL; [10],23
same,CD8+,PBL; [10],40
same,CD8+ CD45RA+,PBL; [10],32
